We go through 21 compounds from US12593845B2 (priority 2019, dated 2026).

Assay [1] concerns apple scab pathogen (Venturia inaequalis). Kind of assay: Apple scab control test. The format is in vivo. The note with it: 336 h, 125 ppm drug solution sprayed onto apple seedlings (Orin), lesion area ratio 2 weeks after inoculation. The protocol: (§1) 5 parts by weight of the dihydropyrimidine compound of the present invention, 93.5 parts by weight of N,N-dimethylformamide, and 1.5 parts by weight of polyoxyethylene sorbitan monolaurate (TWEEN® 20) were mixed and dissolved to obtain an emulsion (I) including 5% of an active ingredient.
(§2) The control value was calculated by the following expression. Control value (%)=100−{lesion area ratio in treated group/lesion area ratio in untreated group}×100 [Expression 1]
Water was added to the emulsion (I) such that the concentration of the dihydropyrimidine compound reached 125 ppm to dissolve the emulsion, and a drug solution was obtained. Subsequently, the drug solution was sprayed onto apple seedlings (variety: “Orin”, leaf stage: 3 to 4) cultivated in seedling pots. After air drying, the seedlings were inoculated with conidiospores of an apple scab pathogen (Venturia inaequalis) (treated group). As a control, apple seedlings that were not sprayed with the drug solution were inoculated in the same manner (untreated group). The seedlings were left to stand in a humidified room at 20° C. using a 12 hour light/dark cycle.
On the day 2 weeks after the inoculation, the leaves of the apple seedlings were visually observed to determine the lesion area ratio, and the control value was calculated.

The test system of another assay is Aspergillus niger. Kind of assay: Antimicrobial test against Aspergillus niger. To be noted: 96 h, Vogel medium, 25° C., 4 days in the dark, turbidity at 405 nm, read-out: growth inhibition rate. The format is cell-based. The protocol:
Spores of Aspergillus niger were added to and dispersed in a Vogel medium, and a dihydropyrimidine compound dissolved in dimethyl sulfoxide was added and mixed thereto at 25 ppm. The resulting solution was dispensed onto a 96-well microplate and cultivated in the dark at 25° C. for 4 days.
After the cultivation, the turbidity at a wavelength of 405 nm was measured by a microplate reader and compared with that in the untreated case to determine the growth inhibition of Aspergillus niger (%) was determined.

Assay [2] deals with wheat powdery mildew pathogen (Erysiphe graminis f. sp. tritici). Kind of assay: Wheat powdery mildew control test. To be noted: Blumeria graminis, 144 h; 125 ppm drug solution sprayed onto wheat seedlings (Chihoku); lesion area ratio 6 days after inoculation. The format is in vivo. The protocol:
as §1, §2
Water was added to the emulsion (I) such that the concentration of the dihydropyrimidine compound reached 125 ppm to dissolve the emulsion, and a drug solution was obtained. Subsequently, the drug solution was sprayed onto wheat seedlings (variety: “Chihoku”, leaf stage: 1 to 2) cultivated in seedling pots. After air drying, conidiospores of a wheat powdery mildew pathogen (Erysiphe graminis f. sp. tritici) were sprinkled thereon for inoculation (treated group). As a control, wheat seedlings that were not sprayed with the drug solution were inoculated in the same manner as described above (untreated group). The seedlings were left to stand in a greenhouse at 20° C.
On the 6 days after the inoculation, the leaves of the wheat seedlings were visually observed to determine the lesion area ratio, and the control value was calculated.

In the case of `CCON=Cc1cn(CC(OCCC#N)c2cc(F)ccc2OC)c(=O)n(CC(C)(C)C(=O)NC(C)C)c1=O` (stereo not shown) [A-7], the pest or weed control (in general, the degree to which the test organism was suppressed or injured, in per cent) at 125 ppm in assay [1] is no less than 75%. The inhibition (commonly the drop in the measured response relative to a control, in per cent) at 25 ppm in the assay on Aspergillus niger is no less than 50%. With `CCON=Cc1cn(CC(OCCC#N)c2cc(F)ccc2OC)c(=O)n(CCNC(=O)OC(C)(C)C)c1=O` (stereo not shown) [A-18], the pest or weed control at 125 ppm in assay [1] and in assay [2] was no less than 75% in each case.

For `CCON=C(C)c1cn(CC(O)c2cc(F)ccc2OC)c(=O)n(C(C)C(=O)NC(C)C)c1=O` (stereo not shown) [A-31], the pest or weed control at 125 ppm in assay [1] and in assay [2] was no less than 75% throughout. As for `CCO/N=C(\C)c1cn(CC(O)c2cc(F)ccc2OC)c(=O)n(CCNC(=O)C(C)C)c1=O` (stereo not shown) [A-37, N-(2-(5-(1-(ethoxyimino)ethyl)-3-(2-(5-fluoro-2-methoxyphenyl)-2-hydroxyethyl)-2,6-dioxo-3,6-dihydropyrimidin-1(2H)-yl)ethyl)isobutyramide], the pest or weed control at 125 ppm in assay [1] was no less than 75%. In the assay with Aspergillus niger, the inhibition at 25 ppm is no less than 50%.

As to `CCO/N=C(\C)c1cn(/C=C(\OC(=O)C(C)C)c2cc(F)ccc2OC)c(=O)n(C[C@H](C)NC(=O)C(C)C)c1=O` [A-46], the pest or weed control at 125 ppm in assay [1] and in assay [2] was no less than 75% each time. With `C/C(=N\OC(C)C)c1cn(CC(O)c2ccccc2OC(C)C)c(=O)n(C[C@H](C)NC(=O)C(C)C)c1=O` (stereo partly shown) [A-49], the pest or weed control at 125 ppm in assay [1] and in assay [2] was no less than 75% in each case. As to `COc1ccc(F)cc1C(O)Cn1cc(C=NOC(C)C)c(=O)n(C(C)C(=O)N2CCOCC2)c1=O` (stereo not shown) [A-71], the pest or weed control at 125 ppm in assay [1] and in assay [2] was no less than 75% in each case. In the case of `COc1ccc(F)cc1C(Cn1cc(C=NOC(C)C)c(=O)n(C(C)C(=O)N2CCC2)c1=O)OCCC#N` (stereo not shown) [A-81], the pest or weed control at 125 ppm in assay [1] and in assay [2] was no less than 75% throughout. In the case of `COc1ccc(F)cc1C(Cn1cc(C=NOC(C)C)c(=O)n(CC(=O)NC(C)C)c1=O)OCCC#N` (stereo not shown) [A-84], the pest or weed control at 125 ppm in assay [1] and in assay [2] was no less than 75% in each case. Consider `COc1ccc(F)cc1C(O)Cn1cc(C=NOC(C)C)c(=O)n(C(C)C(=O)N2CCC2)c1=O` (stereo not shown) [A-86], for which the pest or weed control at 125 ppm in assay [2] was no less than 75%. In the case of `CCO/N=C(\C)c1cn(CC(OC(C)=O)c2cc(F)ccc2OC)c(=O)n(CCNC(=O)C(C)C)c1=O` (stereo not shown) [A-88], the pest or weed control at 125 ppm in assay [1] is no less than 75%. For the same compound, in the assay on Aspergillus niger, the inhibition at 25 ppm was no less than 50%.

For the compound `CCON=Cc1cn(CC(O)c2cc(F)ccc2OC)c(=O)n(CC(C)(C)NC(=O)C(C)C)c1=O` (stereo not shown) [A-92], in assay [2], the pest or weed control at 125 ppm is no less than 75%. Consider `CCON=Cc1cn(CC(O)c2cc(F)ccc2OC)c(=O)n(C(C)C(=O)NC(C)C)c1=O` (stereo not shown) [A-94], for which the pest or weed control at 125 ppm in assay [1] and in assay [2] was no less than 75% in each case. As for `CCON=Cc1cn(CCc2ccccc2OC)c(=O)n(C(C)C(=O)N2CCCC2)c1=O` (stereo not shown) [A-104], the pest or weed control at 125 ppm in assay [1] was no less than 75%. With `CCON=Cc1cn(CCc2ccccc2OC)c(=O)n(C(C)C(=O)N2CCCCC2)c1=O` (stereo not shown) [A-105], the pest or weed control at 125 ppm in assay [1] and in assay [2] was no less than 75% in each case. With `CCON=Cc1cn(CCc2ccccc2OC)c(=O)n(C(C)C(=O)NC(C)C)c1=O` (stereo not shown) [A-107], the pest or weed control at 125 ppm in assay [1] was no less than 75%. For the compound `CCO/N=C(\C)c1nn(CC(O)c2cc(F)ccc2OC)c(=O)n(C[C@H](C)NC(=O)C(C)C)c1=O` (stereo partly shown) [B-1], in assay [2], the pest or weed control at 125 ppm was no less than 75%. `CCO/N=C(\C)c1nn(CC(OCCC#N)c2cc(F)ccc2OC)c(=O)n(C(C)C(=O)NC(C)C)c1=O` (stereo not shown) [B-3]: the pest or weed control at 125 ppm in assay [1] and in assay [2] was no less than 75% in each case. For `CCCn1c(=O)c(/C(C)=N/OC(C)C)cn(CC(O)c2cc(F)ccc2OC)c1=O` (stereo not shown) [B-7], the pest or weed control at 125 ppm in assay [1] was no less than 75%. Same read-out and setting: then `COc1ccccc1CCn1cc(/C(N)=N/OC(C)C)c(=O)n(CCc2ccccc2OC)c1=O` [B-8], with no less than 75%; and `CCO/N=C(\N)c1cn(CCc2ccccc2OC)c(=O)n(CCc2ccccc2OC)c1=O` [B-9], with no less than 75%.
